Data as given in article PMC12452389, “Arginine-Derived Cationic Surfactants Containing Phenylalanine and Tryptophan: Evaluation of Antifungal Activity, Biofilm Eradication, Cytotoxicity, and Ecotoxicity” (Journal of Xenobiotics, 2025).
Counter-ions that a name gives are not always drawn. Like-named read-outs stand apart in the source and are kept apart here. Peptide text beside a SMILES is read from it. * marks the point of attachment. Lauroyl = CCCCCCCCCCCC(=O)*

Columns and labels:
[1] = test system: C. albicans biofilms; assay: Eradication of mature biofilm, MTT method; type: cell-based, Candida albicans; conditions: for concentration removing the total viability of the biofilm: 24 h treatment
Procedure: (§1) Candida strains were cultured in SBA at 30 °C for 24 h. Yeast cells were then suspended in RPMI 1640 broth to a final concentration of 1.5 × 10^7 CFU/mL. For mature biofilm formation, 200 μL of these suspensions was transferred to each well of a 48-well microplate and incubated at 30 °C for 24 h. After incubation, the plate was washed with phosphate-buffered saline (PBS) to remove non-adherent cells. Then, surfactant solutions at various concentrations (200 μL), prepared in RPMI 1640, were added to the wells containing the mature biofilms. Plates were incubated again at 30 °C for 24 h. Following this treatment, the RPMI medium was removed, and wells were washed twice with PBS. To assess biofilm viability, 200 μL of MTT solution (3-(4,5-dimethylthiazol-2-yl)-2,5-diphenyltetrazolium bromide) were added to each well, and plates were incubated for 4 h. After incubation, the MTT solution was removed, and 200 μL of dimethyl sulfoxide (DMSO) were added to solubilize the formazan crystals. Absorbance at 540 nm (A540) was then measured using a microplate reader. Controls without the amino acid-based surfactants were included. All experiments were made in quadruplicate, and the results were averaged to ensure accuracy and reproducibility.
(§2) In this section, we have tested the ability of these cationic surfactants to eradicate mature fungal biofilms of C. albicans and C. tropicalis. Preformed biofilms of these two strains on 48-well plates were exposed to various concentrations of the synthesized surfactants, and the biofilm was not removed after the treatment was quantified using the MTT method (3-[4,5-dimethylthiazol-2-yl]-2,5 diphenyl tetrazolium bromide) (Figure 4). This method detects viable and metabolically active cells within the biofilm by measuring the reduction in MTT to formazan by active mitochondrial enzymes.

[2] = test system: C. tropicalis biofilms; assay: Eradication of mature biofilm, MTT method; type: cell-based, Candida tropicalis; conditions: 24 h treatment
Procedure: as §1, §2

[3] = test system: 3T3 cells; assay: Cytotoxicity, Neutral Red Uptake (NRU) assay; type: cell-based, Swiss mouse; conditions: 3T3, NRU, 24 h; moderate toxicity (TANHC12, PANHC12), onset of dramatic toxicity (PNHC12)
Procedure: (§3) Immortal human keratinocyte cells (HaCaT) and […] (3T3) were obtained from Celltec, University of Barcelona. Dulbecco’s Modified Eagle Medium (DMEM) (4.5 g/L glucose) supplemented with 10% (v/v) FBS, 2 mM L-glutamine, 100 U/mL of penicillin, and 100 μg/mL of streptomycin was used to grow the cells in 75 cm^2 culture flasks at 37 °C with a continuous supply of CO2 at a 5% level. Once cells reached about 80% confluence, they were trypsinized with trypsin-EDTA.
(§4) Cells were first grown into the central 60 wells of a 96-well plate under 5% CO2 at 37 °C for 24 h. The DMEM was removed, and cells were exposed to different concentrations of each amphiphile diluted in DMEM supplemented with 5% FBS for 24 h. Finally, two different assays for quantification were used.
(§5) The NRU assay is based on the accumulation of neutral red dye within the lysosomes of viable, intact cells. Once the cells were incubated with the surfactants, the DMEM was removed, and the NRU dye solution (50 μg/mL dissolved in the medium without FBS and phenol red) was added to each well, and the reaction was allowed for 2 h. The cells were washed with PBS, and 100 μL of an aqueous solution containing 50% absolute ethanol and 1% acetic acid was then added to each well to extract the incorporated dye. The microplates were then stirred for 5 min at 25 °C to facilitate dissolution. Finally, the absorbance of the resulting solutions was measured at λ = 550 nm using a Bio-Rad 550 microplate reader (Hercules, CA, USA).
(§6) The cytotoxic effects of these cationic surfactants were also evaluated using two different cell lines. The use of in vitro cytotoxicity tests is increasing daily, driven by the rise in human exposure to chemicals, as these tests are less costly and time-consuming than in vivo methods. The purpose of in vitro cytotoxicity tests is to detect the biocompatibility of these new surfactants. In this work, the cellular response upon incubation with the different surfactant series was evaluated in two representative skin cell lines: Swiss mouse fibroblasts (3T3 cell line) and human-derived keratinocytes (HaCaT cell line). The in vitro cytotoxicity was determined using the MTT as a measure of mitochondrial activity and the Neutral Red Uptake (NRU) related to lysosomal integrity, which are the most commonly used in vitro cytotoxicity endpoint methods. The cellular response at different concentrations (5, 25, 50, and 100 µM) was evaluated after 24 h of incubation.

[4] = parameters: method as in PMID 36559096; conditions: CO2 Headspace test, pass level 60%; cited from earlier work
[5] = test system: 3T3 cells; assay: Cytotoxicity, MTT assay; type: cell-based, Swiss mouse; conditions: Mus musculus, NIH3T3; 3T3, MTT, 24 h; read from viability curves
Procedure: as §3, §4
(§7) This method relies on the ability of living cells to reduce the yellow MTT reagent into insoluble purple formazan crystals. After the cells were incubated with the surfactants’ solutions, the medium was eliminated, and 100 μL of MTT in PBS (5 mg/mL) diluted 1:10 in culture medium (without phenol red and FBS) was added to each well and co-incubated for 3 h. Then, the medium was discarded, and DMSO was added into each well to solubilize the formazan crystals. Finally, the absorbance of the resulting solutions was measured at 550 nm using a microplate reader (Bio-Rad 550 Hercules, CA, USA).
as §6

[6] = Cytotoxicity, MTT assay; type: cell-based, Swiss mouse; conditions: mouse, 3T3 fibroblast cells, 3T3, MTT, read-out: cell viability; for viability at 24 h, 50 µg/mL: at 50 µg/mL; for viability at 24 h, 100 µg/mL: at 100 µg/mL
Procedure: as §3, §4, §7, §6

[7] = Cytotoxicity, MTT assay; type: cell-based; conditions: human, HaCaT keratinocyte cells, read-out: cell viability; for viability at 24 h, 50 µg/mL: at 50 µg/mL
Procedure: as §3, §4, §7
as §6, with “The use of in vitro cytotoxicity tests is increasing daily, driven by the rise in human exposure to chemicals, as these tests are less costly and time-consuming than in vivo methods. The purpose of in vitro cytotoxicity tests is to detect the biocompatibility of these new surfactants.” left out

[8] = Cytotoxicity, Neutral Red Uptake (NRU) assay; type: cell-based, Swiss mouse; conditions: mouse, 3T3 fibroblast cells, 3T3, NRU, across the full concentration range, read-out: cell viability
Procedure: as §3, §4, §5, §6

Compound | concentration removing the total viability of the biofilm [1] | concentration removing the total viability of the biofilm [2] | concentration at which toxicity was seen [3] | biodegradation [4] | further results
CCCCCCCCCCNC(=O)C(CCCNC(=N)N)NC(=O)C(N)Cc1ccccc1 (centres unmarked) [PANHC10] | ≈ 400 μM | ≈ 400 μM |  |  | 
CCCCCCCCCCCCNC(=O)C(CCCNC(=N)N)NC(=O)C(N)Cc1c[nH]c2ccccc12 (centres unmarked) [TANHC12] |  |  | around 50 µg/mL | did not reach this pass level | 
CCCCCCCCCCCCNC(=O)C(N)Cc1ccccc1 (centres unmarked) [PNHC12, phenylalanine dodecyl amide hydrochloride] |  |  | 5000 ng/mL | did not reach this pass level | IC50 [5]: < 50 µg/mL; viability at 24 h, 50 µg/mL [6]: ~0%; viability at 24 h, 50 µg/mL [7]: 0%
CCCCCCCCCCNC(=O)C(CCCNC(=N)N)NC(=O)C(N)Cc1c[nH]c2ccccc12 (centres unmarked) [TANHC10] |  |  |  |  | viability at 24 h ([7]; across the concentration range (TANHCn series)): ~80%
CCCCCCCCCCCC(=O)NC(Cc1ccccc1)C(=O)NC(CCCNC(=N)N)C(=O)OC (stereo not drawn) [C12PAM] (Lauroyl-Phe-Arg-OMe; configuration not given here) |  |  |  | over 60% | viability at 24 h, 100 µg/mL [6]: ~60%; viability at 24 h [8]: 60 to 100%; reduction of the metabolic activity of the biofilm ([1]; highest concentration tested): less than 65%
CCCCCCCCCCCCCCNC(=O)C(CCCNC(=N)N)NC(=O)C(N)Cc1ccccc1 (centres unmarked) [PANHC14] | ≈ 50 μM | ≈ 50 μM |  |  | 
CCCCCCCCCCCC(=O)NC(CCCNC(=N)N)C(=O)OC (centres unmarked) [C12AM] |  |  |  | over 60% | viability at 24 h ([6]; across all concentrations up to 100 µg/mL): > 85%; viability at 24 h, 50 µg/mL [7]: ~90%; viability at 24 h [8]: 100%
CCCCCCCCCCCCNC(=O)C(CCCNC(=N)N)NC(=O)C(N)Cc1ccccc1 (centres unmarked) [PANHC12, phenylalanine-arginine dodecyl amide dihydrochloride] | ≈ 50 μM | ≈ 50 μM | around 50 µg/mL | did not reach this pass level | viability at 24 h, 50 µg/mL [6]: ~70%; viability at 24 h, 100 µg/mL [6]: 5%
